Measurements: patent publication US8324346B2, “Bioactive keratin peptides” (Keraplast Technologies, Ltd., priority 2002, dated 2012)

Tested on: Normal human adult dermal fibroblasts
Experiment: Cell Titer96 Cell Proliferation Assay: mitogenic effects of synthesized peptides on human fibroblasts in culture for 5 days
Type: cell-based
Details: normalized to baseline controls
Protocol: Normal human adult dermal fibroblasts were cultured in fibroblast growth medium (Clonetics™/BioWhittaker, San Diego, Calif., USA). Passage 5 cells were seeded into wells of 96 well plates at 5×10^3 cells/well. Test peptide solutions were prepared at approximately 1.5 mg/ml in sterile water. Small volumes of 0.1N NH4OH were added dropwise to peptide the peptide solutions to completely solubilize the peptides as recommended by the manufacturer (New England Peptide, Inc., Fitchburg, Miss., USA). The volume of NH4OH added to the solution was recorded and used to adjust beginning concentration. Solutions were serially diluted in fibroblast culture medium from 100-0.001 μg/ml, then added to the cells and cultured for 5 days. At day 3, test and control media were removed from each well by vacuum and replaced with fresh test or control solutions. Samples were evaluated in 4 replicate wells. Note in each plate, wells were selected at random to be used as baseline controls to account for any variation in cell seeding between plates. After 5 days, cell proliferation was assessed spectrophotometrically using the Cell Titer96® Cell Proliferation Assay (Promega Corp., Madison, Wis., USA). Absorbance values were normalized to baseline controls and expressed as percent increased (positive values) or decreased (negative values) proliferation.

Substance	percent increased (positive values) or decreased (negative values) proliferation, concentration 0.001 ug/mL [%]	percent increased (positive values) or decreased (negative values) proliferation, concentration 0.01 ug/mL [%]	percent increased (positive values) or decreased (negative values) proliferation, concentration 0.1 ug/mL [%]	percent increased (positive values) or decreased (negative values) proliferation, concentration 1 ug/mL [%]	percent increased (positive values) or decreased (negative values) proliferation, concentration 10 ug/mL [%]	percent increased (positive values) or decreased (negative values) proliferation, concentration 100 ug/mL [%]
TAPTVD (Consensus peptide) [H2N-TAPTVD-OH]	0.3	−0.9	−0.5	2.1	4.0	6.9
SPLGD (Consensus peptide) [H2N-SPLGD-OH]	11.8	1.7	−4.2	1.5	−1.2	−4.3
VDTAPT (Consensus peptide) [H2N-VDTAPT-OH]	9.0	4.2	6.8	2.5	−0.1	4.4
LGDRL (Consensus peptide) [H2N-LGDRL-OH]	10.3	0.0	0.6	−4.8	−3.1	−3.8
VEVDAA (Consensus peptide) [H2N-VEVDAA-OH]	11.0	2.3	−9.0	−4.7	−1.3	−9.5
TAPTV (Consensus peptide) [H2N-TAPTV-OH]	5.2	−1.2	9.4	8.2	−2.7	0.7
DTAPTV (Consensus peptide) [H2N-DTAPTV-OH]	3.2	2.5	6.7	2.9	2.2	7.6
APTVDLN (Consensus peptide) [H2N-APTVDLN-OH]	1.2	3.9	2.8	−6.0	8.1	6.7
TLRSP (Consensus peptide) [H2N-TLRSP-OH]	4.7	1.9	7.7	6.6	14.7	18.8
DLNQ (Consensus peptide) [H2N-DLNQ-OH]	15.9	8.9	2.6	−0.8	−0.7	−3.6
AAPTVD (Consensus peptide) [H2N-AAPTVD-OH]	11.6	7.9	−1.1	1.7	−2.0	1.6
RLNVEV (Consensus peptide) [H2N-RLNVEV-OH]	−2.6	−6.0	−4.3	1.9	6.4	10.6
AAPTV (Consensus peptide) [H2N-AAPTV-OH]	11.0	−0.2	0.3	2.8	−5.9	−5.9
DAAPTV (Consensus peptide) [H2N-DAAPTV-OH]	−3.0	9.5	7.5	3.5	−6.1	−2.7
EVDAAPT (Consensus peptide) [H2N-EVDAAPT-OH]	6.5	8.9	5.4	7.1	16.5	4.1
VDAAPT (Consensus peptide) [H2N-VDAAPT-OH]	1.6	2.9	−3.6	4.5	6.2	13.3
